This is an account of results in ChEMBL document CHEMBL2016455, “5-Benzothiazole substituted pyrimidine derivatives as HCV replication (replicase) inhibitors” (Bioorg Med Chem Lett, 2012).

Series [1] can be described thus: Cytotoxicity against human hepatoma cells assessed as decrease in RNA level after 3 days by RT-PCR analysis. The series is classed as cell-based. To be noted: for CC50 at 72 h: human hepatoma cells.
Series [2] has as its system Liver. The series can be described thus: Drug uptake in rat liver per mg tissue at 10 mg/kg, po after 6 hrs. The series is classed as ADME, organism-based. More on the design: dose 10 mg/kg, route oral. To be noted: in vivo.
Series [3] has as its system Hepatitis C virus. The series can be described thus: Antiviral activity against Hepatitis C virus isolate con1 1b infected in human hepatoma cells replicon cells after 3 days by RT-PCR analysis. The series is classed as functional, organism-based, Hepacivirus hominis, genotype 1b Con1.
Series [4] is described as follows: AUC (0 to 6 hrs) in rat at 10 mg/kg, po. To be noted: plasma. The series is classed as ADME, organism-based. More on the design: time < 6 hr, dose 10 mg/kg, route oral.
Series [5] in a line: Cytotoxicity against human hepatoma cells after 3 days by MTS assay. The series is classed as cell-based. To be noted: for CC50 at 72 h: human hepatoma cells.
The nature of series [6]: AUC (0 to 24 hrs) in rat at 10 mg/kg, po. The series is classed as ADME, organism-based. Further details: time < 24 hr, dose 10 mg/kg, route oral. To be noted: plasma.
A short description of series [7]: AUC (0 to 24 hrs) in monkey at 1 mg/kg, iv and 3 mg/kg, po. The series is classed as ADME, organism-based, Macaca mulatta. To be noted: rhesus monkey, plasma.
Series [8] in a line: Selectivity ratio of CC50 for human hepatoma cells to EC50 for Hepatitis C virus isolate con1 1b. The series is classed as ADME. To be noted: read-out: Ratio CC50/EC50.
The target of series [9] is Cytochrome P450 3A4 (Homo sapiens, UniProt P08684). Description: Inhibition of CYP3A4. The series is classed as ADME.
Series [10] can be described thus: AUC (0 to 24 hrs) in dog at 1 mg/kg, iv and 3 mg/kg, po. The series is classed as ADME, organism-based, Canis lupus familiaris. To be noted: plasma.
Series [11] in a line: Oral bioavailability in dog at 3 mg/kg. The series is classed as ADME, organism-based, Canis lupus familiaris. To be noted: in vivo.
The target in series [12] is Cytochrome P450 2C9 (Homo sapiens, UniProt P11712). Description: Inhibition of CYP2C9. The series is classed as ADME.
Series [13] can be described thus: AUC (0 to 24 hrs) in rat at 2 mg/kg, iv and 10 mg/kg, po. The series is classed as ADME, organism-based. To be noted: plasma.
Series [14] can be described thus: Oral bioavailability in monkey at 3 mg/kg. The series is classed as ADME, organism-based, Macaca mulatta. To be noted: rhesus monkey, in vivo.
In series [15] the target is Cytochrome P450 2D6 (Homo sapiens, UniProt P10635). The series can be described thus: Inhibition of CYP2D6. The series is classed as ADME.
The nature of series [16]: Oral bioavailability in rat at 10 mg/kg. The series is classed as ADME, organism-based. To be noted: in vivo.
The nature of series [17]: Drug uptake in rat liver at 10 mg/kg, po after 4 hrs. The series is classed as ADME, organism-based. Further details: dose 10 mg/kg, route oral. To be noted: read-out: Drug uptake.
[18] abbreviates: Hepatitis C virus, genotype 1b Con1, 72 h.

Bounds are passed on as bounds.

Chain of Cytochrome P450 3A4 (P08684 whole entry): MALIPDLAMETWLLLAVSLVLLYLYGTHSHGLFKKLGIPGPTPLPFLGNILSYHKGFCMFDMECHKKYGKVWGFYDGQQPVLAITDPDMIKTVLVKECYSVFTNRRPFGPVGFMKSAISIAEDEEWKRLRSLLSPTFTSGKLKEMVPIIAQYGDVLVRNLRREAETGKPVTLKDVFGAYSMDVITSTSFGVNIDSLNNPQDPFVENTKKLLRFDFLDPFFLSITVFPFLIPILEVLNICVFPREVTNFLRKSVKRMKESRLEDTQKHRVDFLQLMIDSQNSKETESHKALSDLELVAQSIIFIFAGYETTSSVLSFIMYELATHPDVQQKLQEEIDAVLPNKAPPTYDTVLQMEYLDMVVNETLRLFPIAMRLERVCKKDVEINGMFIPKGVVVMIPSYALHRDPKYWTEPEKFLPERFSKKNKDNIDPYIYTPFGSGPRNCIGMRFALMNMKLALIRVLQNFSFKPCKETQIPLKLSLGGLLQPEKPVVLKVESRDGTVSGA
Chain of Cytochrome P450 2C9 (P11712 whole entry): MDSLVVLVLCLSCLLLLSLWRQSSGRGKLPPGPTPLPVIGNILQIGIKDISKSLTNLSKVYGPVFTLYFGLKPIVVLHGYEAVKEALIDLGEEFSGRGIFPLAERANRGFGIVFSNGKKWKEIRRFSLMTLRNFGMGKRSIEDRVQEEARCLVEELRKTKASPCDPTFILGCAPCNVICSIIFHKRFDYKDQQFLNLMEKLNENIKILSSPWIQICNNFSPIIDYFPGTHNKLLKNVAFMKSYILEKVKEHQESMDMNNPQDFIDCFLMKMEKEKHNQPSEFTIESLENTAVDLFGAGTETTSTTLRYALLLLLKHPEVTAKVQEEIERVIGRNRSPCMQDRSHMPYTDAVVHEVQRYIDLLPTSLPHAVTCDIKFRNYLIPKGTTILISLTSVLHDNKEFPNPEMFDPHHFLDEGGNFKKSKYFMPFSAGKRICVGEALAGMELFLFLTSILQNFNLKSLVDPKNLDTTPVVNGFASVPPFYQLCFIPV
Chain of Cytochrome P450 2D6 (P10635 whole entry): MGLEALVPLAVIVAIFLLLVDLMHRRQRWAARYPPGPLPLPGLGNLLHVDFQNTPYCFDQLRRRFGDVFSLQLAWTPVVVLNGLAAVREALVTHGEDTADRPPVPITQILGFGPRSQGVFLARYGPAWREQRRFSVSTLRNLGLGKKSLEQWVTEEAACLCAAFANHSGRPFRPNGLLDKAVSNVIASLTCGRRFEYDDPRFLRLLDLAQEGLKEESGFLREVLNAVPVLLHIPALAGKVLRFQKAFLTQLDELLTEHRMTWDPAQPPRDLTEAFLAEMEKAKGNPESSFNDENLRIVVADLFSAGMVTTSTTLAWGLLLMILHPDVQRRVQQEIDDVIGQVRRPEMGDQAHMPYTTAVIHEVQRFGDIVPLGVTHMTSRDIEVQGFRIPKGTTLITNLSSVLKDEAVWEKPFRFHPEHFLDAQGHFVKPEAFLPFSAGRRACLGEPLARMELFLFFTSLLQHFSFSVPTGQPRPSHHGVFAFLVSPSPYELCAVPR

On to `Cc1nc(NC(C)(C)C)nc(N[C@@H]2C[C@H](CO)[C@@H](O)[C@H]2O)c1-c1nc2ccccc2s1`, for which the CC50 at 72 h came out at 12 µM in series [1] and 13 µM in series [5]. In series [2], the Drug uptake was 1240 ng/g. Further, it took 90 nM to reach a half-maximal effect in series [3] (setting [18]) (EC50). This compound also gave an AUC(0-t) at 6 h in series [4] of 5 µM·h.

As to `Nc1ncc(-c2nc3ccccc3s2)c(N[C@@H]2C[C@H](CO)[C@@H](O)[C@H]2O)n1`, the cytotoxic concentration (CC50) at 72 h in [1] and in series [5] was over 25 µM each time. The compound also displayed a Drug uptake in [2] of 250 ng/g. In addition, the EC50 in series [3] (setting [18]) was determined as 200 nM. The same compound displayed an AUC(0-t) at 6 h in [4] of 0.4 µM·h.

On to `CNc1nc(C)c(-c2nc3ccccc3s2)c(N[C@@H]2C[C@H](CO)[C@@H](O)[C@H]2O)n1`, for which the half-maximal cytotoxic concentration (CC50) at 72 h in series [1] and in series [5] was over 25 µM throughout. This compound also gave a Drug uptake in [2] of 75 ng/g. Also, in series [3] (setting [18]), a half-maximal response (EC50) required 50 nM. This compound had an area under the curve AUC(0-t) at 6 h in series [4] of 2.7 µM·h.

Take `CCNc1nc(C)c(-c2nc3ccccc3s2)c(N[C@@H]2C[C@H](CO)[C@@H](O)[C@H]2O)n1`: the CC50 at 72 h in [1] is 12 µM; in series [5] it was over 25 µM. In series [2], this compound registered a Drug uptake of 515 ng/g. Further, a half-maximal effect in series [3] (setting [18]) (EC50) was put at 100 nM. The compound also gave an AUC(0-t) at 6 h in series [4] of 6.2 µM·h.

As to `Cc1nc(NC(C)C)nc(N[C@@H]2C[C@H](CO)[C@@H](O)[C@H]2O)c1-c1nc2ccccc2s1`, the CC50 at 72 h in series [1] was determined as 13 µM; in series [5] it was 14 µM. The compound also gave a Drug uptake in series [2] of 3320 ng/g. Besides, a half-maximal response in [3] (setting [18]) (EC50) required 160 nM. Further, in [4], the exposure AUC(0-t) at 6 h stood at 19.6 µM·h.

On to `Cc1nc(NCC(C)C)nc(N[C@@H]2C[C@H](CO)[C@@H](O)[C@H]2O)c1-c1nc2ccccc2s1`, for which the CC50 at 72 h in series [1] and in [5] was 10 µM throughout. In series [2], the Drug uptake came to 510 ng/g. This compound also returned an EC50 in series [3] (setting [18]) of 60 nM. This compound also displayed an AUC(0-t) at 6 h in series [4] of 2.3 µM·h.

For the compound `Cc1nc(NCC2CC2)nc(N[C@@H]2C[C@H](CO)[C@@H](O)[C@H]2O)c1-c1nc2ccccc2s1`, the CC50 at 72 h in series [1] and in [5] was 8 µM throughout. In series [2], the Drug uptake was 405 ng/g. The same compound returned an EC50 in series [3] (setting [18]) of 50 nM. Besides, the AUC(0-t) at 6 h in series [4] was found to be 3.2 µM·h.

For `Cc1nc(NCC2CCC2)nc(N[C@@H]2C[C@H](CO)[C@@H](O)[C@H]2O)c1-c1nc2ccccc2s1`, the CC50 at 72 h in series [1] and in [5] was over 25 µM in each case. Moreover, the Drug uptake in series [2] amounted to 150 ng/g. Moreover, in series [3] (setting [18]), it took 250 nM to reach a half-maximal effect (EC50). This compound also yielded an AUC(0-t) at 6 h in [4] of 0.5 µM·h.

In series [6], `Cc1nc(N(C)C)nc(N[C@@H]2C[C@H](CO)[C@@H](O)[C@H]2O)c1-c1nc2ccccc2s1` yielded an AUC(0-t) at 24 h of 11 µM·h. In addition, the CC50 at 72 h in [1] was determined as 18 µM; in series [5], 16 µM. Besides, in series [2], the Drug uptake stood at 1030 ng/g. Besides, the EC50 in [3] (setting [18]) came to 140 nM.

In the case of `COCCNc1nc(C)c(-c2nc3ccccc3s2)c(N[C@@H]2C[C@H](CO)[C@@H](O)[C@H]2O)n1`, the values for the CC50 at 72 h in series [1] and in series [5] were 21 µM and 15 µM, respectively. In series [2], this compound had a Drug uptake of 875 ng/g. The compound further yielded an EC50 in [3] (setting [18]) of 35 nM. Further, the AUC(0-t) at 6 h in series [4] was 5.9 µM·h.

For `CCOCCNc1nc(C)c(-c2nc3ccccc3s2)c(N[C@@H]2C[C@H](CO)[C@@H](O)[C@H]2O)n1`, the cytotoxic concentration (CC50) at 72 h in series [1] and in [5] was 18 µM each time. For the same compound, in series [2], the Drug uptake is 400 ng/g. Besides, it took 35 nM to reach a half-maximal effect in series [3] (setting [18]) (EC50). This compound showed an AUC(0-t) at 6 h in series [4] of 2.4 µM·h.

For `Cc1nc(NCCOC(C)C)nc(N[C@@H]2C[C@H](CO)[C@@H](O)[C@H]2O)c1-c1nc2ccccc2s1`, the CC50 at 72 h came out at 8 µM in series [1] and 7 µM in series [5]. Moreover, in [2], the Drug uptake was 130 ng/g. In series [3] (setting [18]), this compound came in with an EC50 of 20 nM. In addition, the AUC(0-t) at 6 h in series [4] worked out at 0.9 µM·h.

For the compound `CCOC(=O)NCCNc1nc(C)c(-c2nc3ccccc3s2)c(N[C@@H]2C[C@H](CO)[C@@H](O)[C@H]2O)n1`, the CC50 at 72 h in series [1] was 12 µM; in series [5] it was 19 µM. This compound had a Drug uptake in [2] of 63 ng/g. Moreover, the EC50 in series [3] (setting [18]) is 40 nM. In addition, in series [4], the AUC(0-t) at 6 h stood at 0.3 µM·h.

Take `Cc1nc(NCCN2CCOCC2)nc(N[C@@H]2C[C@H](CO)[C@@H](O)[C@H]2O)c1-c1nc2ccccc2s1`: the CC50 at 72 h in series [1] and in series [5] was 25 µM each time. Besides, the Drug uptake in series [2] was 370 ng/g. The compound further came in with an EC50 in series [3] (setting [18]) of 40 nM. This compound came in with an AUC(0-t) at 6 h in series [4] of 0.2 µM·h.

Regarding `Cc1nc(NCC(F)(F)F)nc(N[C@@H]2C[C@H](CO)[C@@H](O)[C@H]2O)c1-c1nc2ccccc2s1.Cl`, the AUC(0-t) in series [7] stood at 0.3 µM·h; in series [10], 7.8 µM·h; in [13], 7 µM·h. Further, the selectivity ratio in [8] is over 550. For the same compound, the INH in series [9], in series [12] and in [15] was over 20 µM throughout. Besides, the bioavailability was determined as 35% in series [11], 8% in series [14] and 82% in series [16]. For the same compound, the figures for the CC50 in [1] (72 h) and in series [5] (72 h) were 25 µM and 17 µM, respectively. In addition, it took 30 nM to reach a half-maximal effect in [3] (EC50).

Compound `Cc1nc(NCC(F)(F)F)nc(N[C@@H]2C[C@H](CO)[C@@H](O)[C@H]2O)c1-c1nc2ccccc2s1` yielded an AUC(0-t) at 24 h in series [6] of 7 µM·h. Moreover, the half-maximal cytotoxic concentration (CC50) at 72 h in series [1] and in [5] was over 25 µM throughout. Besides, the concentration at 4 h in series [17] was determined as 8420 ng/g. In series [3], this compound returned an EC50 of 800 nM.
